This is an account of results in US20230116972A1, “CD38 MODULATORS AND METHODS OF USE THEREOF” (Cytokinetics, Inc., priority 2021, published 2023).

The target of one experiment is T1, human CD38 (Homo sapiens, UniProt P28907).
T1 sequence (P28907 1-300): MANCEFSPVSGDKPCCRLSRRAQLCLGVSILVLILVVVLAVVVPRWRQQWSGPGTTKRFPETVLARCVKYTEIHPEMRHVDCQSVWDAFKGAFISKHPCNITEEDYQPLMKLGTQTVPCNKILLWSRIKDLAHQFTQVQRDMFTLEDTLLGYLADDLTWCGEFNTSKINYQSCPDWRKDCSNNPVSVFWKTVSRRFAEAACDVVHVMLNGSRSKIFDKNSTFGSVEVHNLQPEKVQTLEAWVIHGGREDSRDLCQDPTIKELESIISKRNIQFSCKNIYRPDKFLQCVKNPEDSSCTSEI
Briefly: human recombinant CD38 enzyme assay (hydrolysis of NAD+). The experiment is classed as biochemical. To be noted: human recombinant CD38, 0.4 nM enzyme, 62.5 μM NAD+; read-out: hCD38 BioChem IC50. A digest of the protocol:
(§1)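 Residual substrate after a one-hour room-temperature incubation of recombinant CD38 with NAD+ and test compound is measured by an ADH/diaphorase coupled resorufin signal (540 nm excitation, 590 nm emission); reduced NAD+ consumption reflects inhibition.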

In another experiment the target is T2, mouse CD38 (Mus musculus, UniProt P56528).
T2 sequence (P56528 1-304): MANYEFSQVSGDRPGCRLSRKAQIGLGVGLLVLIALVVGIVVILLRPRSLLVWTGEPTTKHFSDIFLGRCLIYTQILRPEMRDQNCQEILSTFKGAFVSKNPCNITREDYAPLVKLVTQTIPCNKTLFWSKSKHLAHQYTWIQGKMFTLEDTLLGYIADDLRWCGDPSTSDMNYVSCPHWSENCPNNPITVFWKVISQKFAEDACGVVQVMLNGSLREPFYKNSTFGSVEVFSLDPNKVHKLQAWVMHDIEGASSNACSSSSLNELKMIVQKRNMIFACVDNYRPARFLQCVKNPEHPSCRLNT
Briefly: mouse recombinant CD38 enzyme assay (hydrolysis of NAD+). The experiment is classed as biochemical. To be noted: read-out: mCD38 BioChem IC50. A digest of the protocol:
as §1

Experiment [1] deals with T3, endogenous CD38 in HL60 cells (Homo sapiens, UniProt P28907).
T3 construct: endogenous in cells; host or cells: HL60 (leukemic cells, treated with all-trans retinoic acid)
T3 sequence (P28907 1-300): T1 sequence (P28907 1-300)
The experiment can be described thus: cellular CD38 assay in HL60 cells (cellular NAD levels). The experiment is classed as cell-based. To be noted: all-trans retinoic acid, 24 hours, read-out: hCD38 HL60 ATRA NAD Cell Diaphorase IC50. The procedure: The compounds described herein were also assayed for their ability to inhibit the endogenous CD38 in a native cellular environment in the cellular CD38 assay, which measures the ability of the compound to modulate cellular NAD levels. […] The assays were initiated by plating 20 μL of HL60 cells in culture medium, at a density of 20000 cells per well to a 384-well Corning™ Multiwell Plates. Compounds in DMSO were added to the plates in a volume of 120 nL using the Labcyte Echo Liquid Handlers. […] The plates are then incubated for 24 hours. 50 μL of a readout-solution containing 0.2 U/mL Diaphorase enzyme, 40 uM resazurin, 10 uM FMN, 0.8 U/mL Alcohol dehydrogenase, 3% ethanol, 0.4 mg/mL bovine serum albumin, 0.2% Triton X-100 in 100 mM Tris-HCl, 30 mM EDTA, pH 8.4. The plates were read for fluorescence (Excitation/Emission=540 nm/590 nm) using an EnVision plate reader after 60 mins of incubation at ambient temperature. Note that, in Table 5, the “Compound No” corresponds to the compound numbers in Table 1.

The structures appear in SMILES notation.

The term IC50 denotes the point on the concentration scale where inhibition reaches its midpoint.

Turning to `O=C(N[C@H]1C[C@H](c2ccnc(C(F)(F)F)c2)C1)c1nccc(-n2ccnc2)n1` [Compound 268, 4-(1H-imidazol-1-yl)-N-((1r,3r)-3-(2-(trifluoromethyl)pyridin-4-yl)cyclobutyl)pyrimidine-2-carboxamide], the IC50 came out at 35.4 nM on human CD38, 96.3 nM on mouse CD38 and 1400 nM in experiment [1].
For `COc1cc(C(=O)N[C@H]2CC[C@H](OC)CC2)nc(-n2ccnc2)n1` [Compound 125, 2-(1H-imidazol-1-yl)-6-methoxy-N-((1r,4r)-4-methoxycyclohexyl)pyrimidine-4-carboxamide], in that order: 19 nM, 4 nM and 2480 nM.
For `COCCOc1cc(C(=O)Nc2ccc(C(F)F)nc2)nc(-n2ccnc2)c1` [Compound 244, N-(6-(difluoromethyl)pyridin-3-yl)-6-(1H-imidazol-1-yl)-4-(2-methoxyethoxy)picolinamide], in that order: 1.9 nM, 1 nM and 499 nM.
For `Cn1cncc1-c1nc(C(=O)N[C@@H]2C[C@@H]3[C@H](C2)C3(F)F)cc(C2CCOCC2)n1` [Compound 280, N-((1R,3s,5S)-6,6-difluorobicyclo[3.1.0]hexan-3-yl)-2-(1-methyl-1H-imidazol-5-yl)-6-(tetrahydro-2H-pyran-4-yl)pyrimidine-4-carboxamide], in that order: 10.7 nM, 3.2 nM and 1500 nM.
In the case of `CC(=O)N1CCC(NC(=O)c2cccc(-n3ccnc3)n2)CC1` [Compound 44, N-(1-acetylpiperidin-4-yl)-6-(1H-imidazol-1-yl)picolinamide], the half-inhibitory concentration (IC50) on human CD38 came out at 98 nM; on mouse CD38, 66 nM; in experiment [1], 5820 nM.
Taken in the same sequence, the figures for `O=C(NC1CCOCC1)c1cccc(-n2ccnc2)n1` [Compound 12, 6-(1H-imidazol-1-yl)-N-(tetrahydro-2H-pyran-4-yl)picolinamide] were 296 nM, 122 nM and 3990 nM.
Taken in the same sequence, the figures for `COc1ccc([C@H]2C[C@H](NC(=O)c3nccc(-c4cncn4C)n3)C2)cc1` [Compound 218, N-((1r,3r)-3-(4-methoxyphenyl)cyclobutyl)-4-(1-methyl-1H-imidazol-5-yl)pyrimidine-2-carboxamide] were 25.2 nM, 11.6 nM and 2220 nM.
For `COC(=O)[C@H]1CC[C@H](NC(=O)c2ccnc(-n3ccnc3)n2)CC1` [Compound 106, methyl (1r,4r)-4-(2-(1H-imidazol-1-yl)pyrimidine-4-carboxamido)cyclohexane-1-carboxylate], in that order: 22 nM, 9 nM and 1800 nM.
Take `Cn1cncc1-c1nccc(C(=O)N[C@H]2CC[C@H](C(F)(F)F)CC2)n1` [Compound 83, 2-(1-methyl-1H-imidazol-5-yl)-N-((1r,4r)-4-(trifluoromethyl)cyclohexyl)pyrimidine-4-carboxamide]: the values for the 50% inhibitory concentration (IC50) (at human CD38; at mouse CD38; in experiment [1]) were 11 nM, 6 nM and 2770 nM, respectively.
Taken in the same sequence, the figures for `O=C(Nc1cccc(F)c1)c1cccc(-n2ccnc2)n1` [Compound 18, N-(3-fluorophenyl)-6-(1H-imidazol-1-yl)picolinamide] were 6 nM, 6 nM and 415 nM.
For `O=C(N[C@H]1C[C@H](c2cccc(F)c2)C1)c1nccc(-n2ccnc2)n1` [Compound 237, N-((1r,3r)-3-(3-fluorophenyl)cyclobutyl)-4-(1H-imidazol-1-yl)pyrimidine-2-carboxamide], in that order: 33.8 nM, 29.5 nM and 2200 nM.
Taken in the same sequence, the figures for `NC(=O)c1cncn1-c1cccc(C(=O)Nc2ccc(C(F)(F)F)nc2)n1` [Compound 66, 6-(5-carbamoyl-1H-imidazol-1-yl)-N-(6-(trifluoromethyl)pyridin-3-yl)picolinamide] were 91 nM, 190 nM and 3430 nM.
Consider `Cn1cncc1-c1ccnc(C(=O)Nc2ccc(C(F)F)nc2)n1` [Compound 147, N-(6-(difluoromethyl)pyridin-3-yl)-4-(1-methyl-1H-imidazol-5-yl)pyrimidine-2-carboxamide], for which the IC50 turned out to be 2 nM at human CD38, 6 nM on mouse CD38 and 151 nM in experiment [1].
`Cn1cncc1-c1nc(C(=O)N[C@H]2C[C@H](Oc3ccccc3)C2)cc(C2CCOCC2)n1` [Compound 291, 2-(1-methyl-1H-imidazol-5-yl)-N-((1r,3r)-3-phenoxycyclobutyl)-6-(tetrahydro-2H-pyran-4-yl)pyrimidine-4-carboxamide]: the IC50 at human CD38 was found to be 4.1 nM; on mouse CD38, 3.4 nM; in experiment [1] it was 2620 nM.
With `O=C(N[C@H]1CC[C@H](CO)CC1)c1nccc(-n2ccnc2)n1` [Compound 261, N-((1r,4r)-4-(hydroxymethyl)cyclohexyl)-4-(1H-imidazol-1-yl)pyrimidine-2-carboxamide], the half-maximal inhibitory concentration (IC50) is 86.3 nM on human CD38, 39.1 nM on mouse CD38 and 3100 nM in experiment [1].
Taken in the same sequence, the figures for `COCCO[C@H]1CC[C@H](NC(=O)c2cccc(-c3cncn3C)n2)CC1` [Compound 65, N-(4-(2-methoxyethoxy)cyclohexyl)-6-(1-methyl-1H-imidazol-5-yl)picolinamide] were 224 nM, 62 nM and 7690 nM.
In the case of `O=C(NC12CC(C1)C2)c1cccc(-n2ccnc2)n1` [Compound 16, N-(bicyclo[1.1.1]pentan-1-yl)-6-(1H-imidazol-1-yl)picolinamide], the concentration for half-maximal inhibition (IC50) at human CD38 was determined as 1510 nM; at mouse CD38, 760 nM; in experiment [1] it was 7390 nM.
Taken in the same sequence, the figures for `Cn1cncc1-c1nc(C(=O)Nc2ccc(C(F)F)nc2)cc(C(C)(C)O)n1` [Compound 159, N-(6-(difluoromethyl)pyridin-3-yl)-6-(2-hydroxypropan-2-yl)-2-(1-methyl-1H-imidazol-5-yl)pyrimidine-4-carboxamide] were 9 nM, 5 nM and 1090 nM.
Taken in the same sequence, the figures for `Cn1cncc1-c1ccnc(C(=O)N[C@H]2C[C@H](c3ccccc3)C2)n1` [Compound 213, 4-(1-methyl-1H-imidazol-5-yl)-N-((1r,3r)-3-phenylcyclobutyl)pyrimidine-2-carboxamide] were 15.2 nM, 9.1 nM and 1470 nM.
Take `O=C(NC1CCN(c2ccccc2)CC1)c1nccc(-n2ccnc2)n1` [Compound 263, 4-(1H-imidazol-1-yl)-N-(1-phenylpiperidin-4-yl)pyrimidine-2-carboxamide]: the IC50 on human CD38 came to 252 nM; at mouse CD38, 270 nM; in experiment [1], 12500 nM.
For `Cc1cc(C(F)(F)F)ncc1NC(=O)c1cccc(-n2ccnc2)n1` [Compound 29, 6-(1H-imidazol-1-yl)-N-(4-methyl-6-(trifluoromethyl)pyridin-3-yl)picolinamide], in that order: 389 nM, 110 nM and 8550 nM.
Taken in the same sequence, the figures for `O=C(Nc1cncc(F)c1)c1cc(-n2ccnc2)ccn1` [Compound 3, N-(5-fluoropyridin-3-yl)-4-(1H-imidazol-1-yl)picolinamide] were 1090 nM, 234 nM and 6780 nM.
Turning to `COc1ccc(NC(=O)c2cccc(-n3ccnc3)n2)cn1` [Compound 25, 6-(1H-imidazol-1-yl)-N-(6-methoxypyridin-3-yl)picolinamide], the IC50 was 13 nM at human CD38, 13 nM on mouse CD38 and 468 nM in experiment [1].
